From article PMC11989005, “The Elongation Factor 1 Alpha Promoter Drives the Functional Expression of Kir2A in Plutella xylostella Cells” (International Journal of Molecular Sciences, 2025)
Where two headings read alike, the source gives them in different places.

Biological target: T1, PxKir2A (Plutella xylostella, UniProt A0A7L7TNR0)
T1 construct: gene kir2; full-length ORF in pEF1alpha-PxKir2A, no tag stated; transiently expressed in P. xylostella Px4-2 cells, EGFP co-transfected from a separate plasmid
T1 sequence (A0A7L7TNR0 entry or part of it): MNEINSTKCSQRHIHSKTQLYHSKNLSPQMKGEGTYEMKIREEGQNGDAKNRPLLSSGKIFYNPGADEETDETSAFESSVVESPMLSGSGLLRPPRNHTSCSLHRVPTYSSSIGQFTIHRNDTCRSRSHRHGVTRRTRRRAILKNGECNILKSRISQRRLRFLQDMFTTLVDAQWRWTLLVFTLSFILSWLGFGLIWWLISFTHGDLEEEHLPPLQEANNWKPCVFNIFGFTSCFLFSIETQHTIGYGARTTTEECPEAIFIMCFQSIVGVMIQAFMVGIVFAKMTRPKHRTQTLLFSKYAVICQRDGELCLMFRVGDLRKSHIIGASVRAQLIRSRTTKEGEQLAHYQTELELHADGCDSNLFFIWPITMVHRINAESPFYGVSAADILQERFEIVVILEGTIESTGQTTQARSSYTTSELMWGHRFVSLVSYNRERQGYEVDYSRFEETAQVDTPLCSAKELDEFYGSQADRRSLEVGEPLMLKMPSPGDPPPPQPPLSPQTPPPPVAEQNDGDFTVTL
Test: whole-cell patch clamp, inhibition of inward K+ current
Type: cell-based

| IC50 (bath 50 mM KCl, pH 6.4, 25 °C, holding -20 mV, steps -120 to +20 mV, DMSO <0.05%, read-out: IC50) [nM] | Compound | IC50 [nM] |
| --- | --- | --- |
| 151 | CCC(=O)N1c2ccc(S(=O)(=O)Nc3cccc(OC)c3)cc2CC1C (centres unmarked) [VU625] |  |
|  | O=[N+]([O-])c1ccc(CN2CCOCCOCCN(Cc3ccc([N+](=O)[O-])cc3)CCOCC2)cc1 [VU590] | 634 |
